Experimental data taken from patent US7247709B2, “Mitogenic oxygenases” (Emory University, priority 1998, dated 2007).
Values belong to the molecule of their own block, whether it stands above or below them.

How the values were obtained:
mox1 NADPH-oxidase = target: T1, mox1 NADPH-oxidase (Homo sapiens, UniProt Q9Y5S8, I173V); assay: Cell-free assay for mox1 NADPH-oxidase activity (NADPH-dependent chemiluminescence of cell lysates); format: biochemical; conditions: MgCl2 1-5 mM
T1 construct: expressed in transfected cells
T1 sequence (Q9Y5S8 1-564 I173V): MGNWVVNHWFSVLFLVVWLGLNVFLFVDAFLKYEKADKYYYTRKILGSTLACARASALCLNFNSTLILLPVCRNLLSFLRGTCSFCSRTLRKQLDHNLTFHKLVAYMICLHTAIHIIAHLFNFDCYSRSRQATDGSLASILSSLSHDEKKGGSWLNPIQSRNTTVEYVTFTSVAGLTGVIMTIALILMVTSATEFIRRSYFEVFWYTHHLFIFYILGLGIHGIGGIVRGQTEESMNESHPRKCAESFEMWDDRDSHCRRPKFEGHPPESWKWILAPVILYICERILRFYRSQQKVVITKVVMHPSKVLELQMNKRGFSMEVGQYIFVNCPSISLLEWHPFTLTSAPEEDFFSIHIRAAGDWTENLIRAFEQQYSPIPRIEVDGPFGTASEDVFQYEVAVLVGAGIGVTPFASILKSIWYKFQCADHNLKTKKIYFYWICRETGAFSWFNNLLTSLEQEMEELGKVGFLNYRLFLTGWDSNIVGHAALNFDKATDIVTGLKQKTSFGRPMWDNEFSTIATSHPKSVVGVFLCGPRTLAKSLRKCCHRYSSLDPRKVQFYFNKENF
T1 sequence (Q61462 1-192 partner): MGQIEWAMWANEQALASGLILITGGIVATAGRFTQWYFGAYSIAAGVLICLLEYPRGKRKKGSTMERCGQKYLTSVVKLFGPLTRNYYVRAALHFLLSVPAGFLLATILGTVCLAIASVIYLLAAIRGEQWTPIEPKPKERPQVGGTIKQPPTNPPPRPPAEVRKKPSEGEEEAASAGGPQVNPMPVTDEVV
Method: In an alternate and preferred embodiment of the present invention, cells that had been stably transfected with mox1 (YA28) or with empty vector (NEF2) were grown in 10 cm tissue culture plates in medium containing DMEM, 10% calf serum, 100 units/ml penicillin, 100 μg/ml streptomycin, and 1 μg/ml puromycin to approximately 80% confluency. Cells (five tissue culture plates of each cell type) were washed briefly with 5 ml phosphate buffered saline (PBS) then dissociated from the plates with PBS containing 5 mM EDTA. Cells were pelleted by centrifuging briefly at 1000×g.
To permeabilize the cells, freeze thaw lysis was carried out and this was followed by passage of the cell material through a small bore needle. The supernatant was removed and the cells were frozen on dry ice for 15 minutes. […]
The cell lysates were assayed for protein concentration using the BioRad protein assay system. […] The reaction was initiated by adding 1.5 mM NADPH and 75 μM lucigenin to the assay mix to give a final concentration of 200 μM NADPH and 10 μM lucigenin, and the chemiluminescence was monitored immediately. […] The plate was monitored continuously for 60 minutes and the maximal relative luminescence unit (RLU) value for each sample was used for the graph. […]

human mox1 = target: T2, human mox1 (Homo sapiens, UniProt Q9Y5S8, I173V); assay: NADPH-dependent superoxide generation, lucigenin luminescence assay in lysates of mox1-transfected NIH 3T3 cells; format: biochemical; conditions: lysates of stably mox1-transfected NIH 3T3 cell lines
T2 construct: expressed in transfected cells
T2 sequence (Q9Y5S8 1-564 I173V): T1 sequence (Q9Y5S8 1-564 I173V)
T2 sequence (Q61462 1-192 partner): T1 sequence (Q61462 1-192 partner)
Method: In one embodiment of the present invention, NIH 3T3 cells stably transfected with the human mox1 gene (SEQ ID NO:1) were analyzed for superoxide generation using the lucigenin (Bis-N-methylacridinium luminescence assay (Sigma, St. Louis, Mo., Li et al. (1998) J. Biol. Chem. 273, 2015-2023). Cells were washed with cold HANKS' solution and homogenized on ice in HANKS' buffer containing 15% sucrose using a Dounce homogenizer. Cell lysates were frozen immediately in a dry ice/ethanol bath. For the assay, 30 μg of cell lysate was mixed with 200 μM NADPH and 500 μM lucigenin. Luminescence was monitored using a LumiCounter (Packard) at three successive one minute intervals and the highest value was used for comparison. Protein concentration was determined by the Bradford method.
Superoxide generation was monitored in lysates from some of the stably transfected cell lines and was compared with superoxide generation by the untransfected NIH 3T3 cell lysates. Cell lines 26, 27, and 28 gave the highest degree of morphological changes by microscopic examination corresponding to the highest degree of superoxide generation. The luminescent signal was inhibited by superoxide dismutase and the general flavoprotein inhibitor diphenylene iodonium, but was unaffected by added recombinant human p47phox, p67phox and Rac1 (GTP-γS), which are essential cytosolic factors for the phagocyte respiratory-burst oxidase.

[1] = test system: superoxide-generating NADPH oxidase activity; assay: Superoxide generation in lysates of Ras-transformed fibroblasts, lucigenin luminescence assay; format: biochemical; conditions: for RLU/5 μg protein, plus DPI: 1 μM DPI; for inhibition of luminescence / activity: lysates of Table 6; for RLU/5 μg protein, plus SOD: 100 U SOD
Method: Lysates from each of these lines were then prepared and tested for their ability to generate superoxide. For each cell line, cells were washed with cold HANKS' balanced salt solution (HBSS), collected by centrifugation, kept on dry-ice for more than 30 min, and disrupted by suspending in low salt buffer (LSB; 50 mM Tris/HCl, pH 7.5, 1 mM PMSF, and protease cocktail from Sigma) and passing through a syringe needle (18 gauge) ten times. Cell lysates were frozen in dry-ice immediately after determining the protein concentration. […] Luminescence of the reaction mixture was monitored for 0.5 second by LumiCounter (Packard) for four times at 3 second intervals. RLU in Table 5 refers to relative luminescence units.

[2] = test system: NIH 3T3 cells transfected with the mox1 cDNA (SEQ ID NO:1); assay: Nitro blue tetrazolium reduction by superoxide generated by intact NIH 3T3 cells transfected with mox1 cDNA; format: cell-based; conditions: 600 units superoxide dismutase
Method: Superoxide generation by intact cells was monitored by using superoxide dismutase-sensitive reduction of nitroblue tetrazolium. NEF2 (vector alone control), YA26 (mox1 (SEQ ID NO:1)-transfected) and YA28 (mox1 (SEQ ID NO:1)-transfected) cells were plated in six well plates at 500,000 cells per well. About 24 hours later, medium was removed from cells and the cells were washed once with 1 mL Hanks solution (Sigma, St. Louis, Mo.). About 1 mL of filtered 0.25% Nitro blue tetrazolium (NBT, Sigma) was added in Hanks without or with 600 units of superoxide dismutase (Sigma) and cells were incubated at 37° C. in the presence of 5% CO2. After 8 minutes the cells were scraped and pelleted at more than 10,000 g. The pellet was re-suspended in 1 mL of pyridine (Sigma) and heated for 10 minutes at 100° C. to solubilize the reduced NBT. The concentration of reduced NBT was determined by measuring the absorbance at 510 nm, using an extinction coefficient of 11,000 M^−1cm^−1. Some wells were untreated and used to determine cell number.

r-p65mox mRNA = assay: Expression of r-p65mox mRNA in rat aortic smooth muscle cells (Northern blot); format: cell-based
Method: Human multiple tissue northern (MTN) Blot I and Human MTN Blot IV (ClonTech) membranes were hybridized with the putative coding region of the PCR-mox vector at 68° C. for several hours. The mox coding region was labeled by random priming with [α-^32P]dCTP (10 μCi) using the Prime-It II kit (Stratagene). For analysis of mox1 expression in cell lines, total RNA was prepared from 10^6 cells using the High Pure RNA Isolation Kit (Boehringer Mannheim) or RNeasy kit (Quiagen). Total RNA (10-20 μg) was separated on a 1% agarose formaldehyde mini-gel and transferred to a Nytran filter (Biorad) and immobilized by ultraviolet cross-linking.
Using the partial cDNA clone from rat, we have examined cultured rat aortic smooth muscle cells for expression of message for r-p65mox. We have observed the mRNA for r-p65mox in these cells. It has been previously reported (Griendling et al. (1994) Circ. Res. 74, 1141-1148; Fukui et al. (1997) Circ. Res. 80, 45-51; Ushio-Fukai et al. (1996) J. Biol. Chem. 271, 23317-23321) that in vitro or in vivo treatment with angiotensin II (AII) is a growth stimulus for vascular smooth muscle cells, and that AII induces increased superoxide generation in these cells. Platelet-derived growth factor (PDGF) and PMA are proliferative signals for vascular smooth muscle cells. We observed that the mRNA for r-p65mox was induced approximately 2-3 fold by angiotensin II (100 nM), corresponding to the increased level of superoxide generation. Thus, the increased superoxide generation in these cells correlates with increased expression of the mRNA for this enzyme. […] 28S RNA was used as a control for RNA recovery.

Molecule: c1ccc2c(c1)[I+]c1ccccc1-2 [DPI, diphenyleneiodonium]
effect of added agent on the luminescent signal (human mox1): inhibited
RLU/5 μg protein, plus DPI ([1]; V12-Ras-4 lysate): 36 RLU/5 μg protein
RLU/5 μg protein, plus DPI ([1]; V12-Ras-7 lysate): 39 RLU/5 μg protein
RLU/5 μg protein, plus DPI ([1]; V12-Ras-8 lysate): 35 RLU/5 μg protein
RLU/5 μg protein, plus DPI ([1]; Vector Control lysate): 48 RLU/5 μg protein
inhibition of luminescence / activity [1]: completely inhibited

Molecule: PDGF
induction of rat mox1 message, quantitation by densitometry (r-p65mox mRNA; 6 and 12 hour time points): ~4 fold
increase of mRNA for r-p65mox (r-p65mox mRNA; PDGF 20 ng/ml): ≥ 2 fold
Northern hybridization of mox1 mRNA from rat aortic smooth muscle cells (r-p65mox mRNA; within 12 hours after treatment): increased roughly two-fold

Molecule: angiotensin II (DRVYIHPF; Angiotensin-2; UniProt P01019 25-32, looked up) [growth stimulus for vascular smooth muscle cells]
induction of rat mox1 message, quantitation by densitometry (r-p65mox mRNA; 12 hour time point): approximately 2 fold

Now from value to molecule, other results behind:

enhancement of NADPH-oxidase activity (mox1 NADPH-oxidase): about 2 fold
Molecule: [Cl-].[Cl-].[Mg+2] [MgCl2]

effect of added agent on the luminescent signal (human mox1): inhibited
RLU/5 μg protein, plus SOD ([1]; V12-Ras-4 lysate): 2128 RLU/5 μg protein
RLU/5 μg protein, plus SOD ([1]; V12-Ras-7 lysate): 578 RLU/5 μg protein
RLU/5 μg protein, plus SOD ([1]; V12-Ras-8 lysate): 2000 RLU/5 μg protein
RLU/5 μg protein, plus SOD ([1]; Vector Control lysate): 154 RLU/5 μg protein
inhibition of luminescence / activity [1]: partially inhibited
Molecule: superoxide dismutase
NBT Reduction, +SOD ([2]; YA26 (mox1) cells): 3.4 ± 0.1 nmols/10^6 cells
NBT Reduction, +SOD ([2]; YA28 (mox1) cells): 3.4 ± 0.3 nmols/10^6 cells
NBT Reduction, +SOD ([2]; vector control cells): 2.1 ± 0.5 nmols/10^6 cells

effect of added agent on the luminescent signal (human mox1): unaffected
B1: p47phox: recombinant human p47phox, essential cytosolic factor for the phagocyte respiratory-burst oxidase (protein, UniProt P14598 1-390, looked up)
Neutrophil cytosol factor 1: MGDTFIRHIALLGFEKRFVPSQHYVYMFLVKWQDLSEKVVYRRFTEIYEFHKTLKEMFPIEAGAINPENRIIPHLPAPKWFDGQRAAENRQGTLTEYCSTLMSLPTKISRCPHLLDFFKVRPDDLKLPTDNQTKKPETYLMPKDGKSTATDITGPIILQTYRAIANYEKTSGSEMALSTGDVVEVVEKSESGWWFCQMKAKRGWIPASFLEPLDSPDETEDPEPNYAGEPYVAIKAYTAVEGDEVSLLEGEAVEVIHKLLDGWWVIRKDDVTGYFPSMYLQKSGQDVSQAQRQIKRGAPPRRSSIRNAHSIHQRSRKRLSQDAYRRNSVRFLQQRRRQARPGPQSPGSPLEEERQTQRSKPQPAVPPRPSADLILNRCSESTKRKLASAV

effect of added agent on the luminescent signal (human mox1): unaffected
B2: p67phox: recombinant human p67phox, essential cytosolic factor for the phagocyte respiratory-burst oxidase (protein, UniProt P19878 1-526, looked up)
Neutrophil cytosol factor 2: MSLVEAISLWNEGVLAADKKDWKGALDAFSAVQDPHSRICFNIGCMYTILKNMTEAEKAFTRSINRDKHLAVAYFQRGMLYYQTEKYDLAIKDLKEALIQLRGNQLIDYKILGLQFKLFACEVLYNIAFMYAKKEEWKKAEEQLALATSMKSEPRHSKIDKAMECVWKQKLYEPVVIPVGKLFRPNERQVAQLAKKDYLGKATVVASVVDQDSFSGFAPLQPQAAEPPPRPKTPEIFRALEGEAHRVLFGFVPETKEELQVMPGNIVFVLKKGNDNWATVMFNGQKGLVPCNYLEPVELRIHPQQQPQEESSPQSDIPAPPSSKAPGRPQLSPGQKQKEEPKEVKLSVPMPYTLKVHYKYTVVMKTQPGLPYSQVRDMVSKKLELRLEHTKLSYRPRDSNELVPLSEDSMKDAWGQVKNYCLTLWCENTVGDQGFPDEPKESEKADANNQTTEPQLKKGSQVEALFSYEATQPEDLEFQEGDIILVLSKVNEEWLEGECKGKVGIFPKVFVEDCATTDLESTRREV
